± gives the expanded uncertainty stated by the source.
Conditions: Transpiration method

CCCCCCCCCCCCCC [tetradecane]
vapor or sublimation pressure (283.15 K, Liquid): 0.000427 ± 1.7e-05 kPa | vapor or sublimation pressure (293.15 K, Liquid): 0.00121 ± 5e-05 kPa | vapor or sublimation pressure (303.15 K, Liquid): 0.00322 ± 0.00013 kPa | vapor or sublimation pressure (313.15 K, Liquid): 0.0081 ± 0.00031 kPa

Cc1ccccc1[N+](=O)[O-] [2-nitrotoluene]
vapor or sublimation pressure (283.15 K, Liquid): 0.00553 ± 0.0008 kPa | vapor or sublimation pressure (293.15 K, Liquid): 0.0127 ± 0.0018 kPa | vapor or sublimation pressure (303.15 K, Liquid): 0.0297 ± 0.0043 kPa | vapor or sublimation pressure (313.15 K, Liquid): 0.0611 ± 0.0088 kPa

Cc1cccc([N+](=O)[O-])c1 [3-nitrotoluene]
vapor or sublimation pressure (283.15 K, Crystal): 0.00339 ± 0.00049 kPa | vapor or sublimation pressure (293.15 K, Liquid): 0.00855 ± 0.0012 kPa | vapor or sublimation pressure (303.15 K, Liquid): 0.0195 ± 0.0028 kPa | vapor or sublimation pressure (313.15 K, Liquid): 0.0378 ± 0.0055 kPa

Cc1ccc([N+](=O)[O-])cc1 [1-methyl-4-nitrobenzene]
vapor or sublimation pressure (283.15 K, Crystal): 0.00125 ± 0.00018 kPa | vapor or sublimation pressure (293.15 K, Crystal): 0.00379 ± 0.00055 kPa | vapor or sublimation pressure (303.15 K, Crystal): 0.0102 ± 0.0015 kPa | vapor or sublimation pressure (313.15 K, Crystal): 0.0264 ± 0.0038 kPa
